In paper PMC5430839, “Deciphering the mode of action of cell wall-inhibiting antibiotics using metabolic labeling of growing peptidoglycan in Streptococcus pyogenes” (Scientific Reports, 2017):
Where two headings read alike, the source gives them in different places.

What was measured:
S. pyogenes strain JRS4 [1] = assay: Determination of subbacteriostatic concentrations (growth curve, OD600); assay type: cell-based, Streptococcus pyogenes; details: minimum dose at which growth curve plateaus at OD600 <1.0 after 4-h incubation at 37 °C, THY, added at OD600 0.4
Protocol: (§1) S. pyogenes strain JRS4 (M6^+ F1^+) was grown in Todd-Hewitt broth supplemented with 0.3% yeast extract (THY) at 37 °C.
S. pyogenes were grown in THY to an OD600 of 0.4 (exponential phase) at 37 °C and then added a solution of antibiotic of varying concentration. The culture mixture was further incubated for 4 h at 37 °C. Subbacteriostatic concentration in this study is the minimum dose of antibiotic that makes growth curve reach a plateau at OD600 of <1.0 after the 4-h incubation. In the absence of antibiotics, GAS cells grew up to OD600 of approximately 1.6. Subbacteriostatic concentrations were determined for each antibiotic, and mode-of-action analyses were performed at these concentrations (Figs 2, 3, 4, 5, 6 and 7).

S. pyogenes strain JRS4 [2] = assay: Live cell labeling with sortase A substrate in the presence of antibiotics: phenotype and cell size distribution; assay type: cell-based, Streptococcus pyogenes; details: for cells with one or more completed septa among cells with multiple division sites: n = 55 (CBPV), 114 (flavomycin), 105 (ΔNCBPV) cells
Description: Streptococcal cell wall synthesis consists of cylindrical peripheral synthesis and septal synthesis (Fig. 1A). A study using Streptococcus pneumoniae illustrated that the serine-threonine kinase StkP controls the switch from peripheral synthesis to septal synthesis. Splitting of the septum (cell separation) is then mediated by the action of autolysin. We labeled the GAS cell wall using the sortase method in the absence of antibiotics, and the observed labeling patterns of GAS were classified into three phenotypes (Fig. 1A–C). Phenotype A cells are newly divided cells without specific fluorescent labeling. Phenotype B cells are in the peripheral growth stage. A characteristic two-elongated-dot image or an open ring corresponds to peripheral growth near the bacterial division site. Phenotype C cells are in the septal growth stage, and the dividing septum is fluorescently stained. The distribution (%) of phenotypes A, B, and C among cells was 37 ± 2, 47 ± 2, and 16 ± 1, respectively, in log-phase GAS. Data represent the mean ± sem (n = 3). Subsequently, we constructed a histogram of each phenotype population as a function of bacterial cell length, as defined in Fig. 1C (orange, Fig. 1D). The subpopulation of cells with a specific phenotype is overlaid on the total cell size distribution (blue). […] The histograms also illustrate that cells grow from phenotype A, through phenotype B, to phenotype C (followed by cell separation), confirming that peripheral growth precedes septal growth in GAS. We speculated that the changes of this histogram would provide information on antibiotic modes of action.
as §1
Bacterial cells grown in THY to an OD600 of 0.35–0.4 (exponential phase) at 37 °C were exposed to antibiotics and incubated for 1 h, and 100-μL aliquots of culture mixture were taken and added to a solution of sortase substrate (FL-KLPETG-NH2, final concentration = 1 mM). After incubation for 2.5 h at 37 °C in the dark, Nile Red (10 μg/mL) and DAPI (1 μg/mL) were added. The mixture was allowed to stand for 30 min and then centrifuged (12,000 rpm, 2 min, 4 °C). The supernatant was removed, and the pellet was washed thrice with PBS buffer to remove unreacted sortase substrate. Cells were re-suspended in PBS buffer, mounted on a glass slide, and examined by fluorescent microscopy. Images were analyzed manually using ImageJ software (ver. 1.50). Sets of axial- and equatorial-length were also recorded for each cell. At least 200 cells were analyzed in each analysis. All experiments were performed at least thrice, and representative results are shown.

S. pyogenes strain JRS4 [3] = assay: Imaging of peripheral growth by FDAA pre-labeling in D-cycloserine/oxacillin-treated cells; assay type: cell-based, Streptococcus pyogenes; details: FDAA pre-labeling 1 h, then antibiotic 3 h
Description: The observed enlargement of cells implied that cell wall synthesis could proceed, at least partly, in the presence of these antibiotics at their subbacteriostatic concentrations. We therefore studied the relationship between peripheral growth length and axial length for cells via dual-color staining. Nile red was used to stain the bacterial cell membrane, and the fluorescent D-amino acid (FDAA) labeling[10]–[12] was employed for old cell wall (preexisting prior to antibiotic treatment). In the presence of antibiotic, peripheral growth length was measured as a gap between the old (stained) regions of the preexisting cell wall (Fig. 5A and B).
Bacterial cells grown in THY to an OD600 of 0.2 (exponential phase) at 37 °C, and 100-μL aliquots of culture mixture were taken (Fig. 5). FDAA solution (final concentration = 1 mM; FL-D-Lys for Fig. 5A and E, tetramethylrhodamine- D-Lys for Fig. 5D) was added, and the mixture was incubated for 1 h at 37 °C in the dark. The mixture was centrifuged (12,000 rpm, 2 min, 4 °C), the supernatant was removed, and the pellet was washed with PBS buffer thrice to remove unreacted FDAA. Cells were re-suspended in 100-μL THY and incubated at 37 °C in the dark with antibiotics for 2.5 h. […]

gram-positive strains = details: ref many studies; cited from earlier work
[4] = antibiotic at subbacteriostatic conc., mean ± sem, n = 3
[5] = antibiotic at subbacteriostatic conc.

Molecule | subbacteriostatic concentration (S. pyogenes strain JRS4 [1]) | proportion of cells, phenotype A (no active cell wall synthesis) (S. pyogenes strain JRS4 [2]; [4]) | proportion of cells, phenotype B (peripheral growth) (S. pyogenes strain JRS4 [2]; [4]) | proportion of cells, phenotype C (septal growth) (S. pyogenes strain JRS4 [2]; [4]) | proportion of cells, phenotype D (multiple septa in an elongated cell) (S. pyogenes strain JRS4 [2]; [4]) | peripheral growth/axial length relationship (dot blot analysis) (S. pyogenes strain JRS4 [3]) | cells with one or more completed septa among cells with multiple division sites (S. pyogenes strain JRS4 [2]; [5]) | proportion of cells, phenotype D′ (multiple peripheral growth sites, axially elongated) (S. pyogenes strain JRS4 [2]; [4]) | antibacterial activity (gram-positive strains) | proportion of cells, phenotype B (peripheral growth) (S. pyogenes strain JRS4 [2]) | proportion of cells, phenotype C (septal growth) (S. pyogenes strain JRS4 [2]) | proportion of cells, phenotype D′ (multiple peripheral growth sites, axially elongated) (S. pyogenes strain JRS4 [2])
N[C@@H]1CON=C1O [D-Cycloserine] | 100 µg/mL | 25 ± 6% | 68 ± 7% | 2 ± 1% | 5 ± 1% | considerably larger than that of oxacillin-treated cells | – | – | – | – | – | –
Cc1onc(-c2ccccc2)c1C(=O)N[C@@H]1C(=O)N2[C@@H]1SC(C)(C)[C@@H]2C(=O)O [Oxacillin] | 4 µg/mL | 19 ± 4% | 60 ± 4% | 12 ± 5% | 9 ± 2% | peripheral growth barely contributed to cell enlargement | – | – | – | – | – | –
Bacitracin | 4 µg/mL | – | – | – | – | – | – | – | – | – | – | –
Flavomycin | 1 µg/mL | 4 ± 1% | 20 ± 6% | 22 ± 2% | 54 ± 5% | – | 98% | – | – | – | – | –
Ramoplanin | 2 µg/mL | 27 ± 3% | 50 ± 4% | 23 ± 5% | – | – | – | – | – | – | – | –
Vancomycin | 4 µg/mL | 34 ± 4% | 49 ± 4% | 17 ± 1% | – | – | – | – | – | – | – | –
chlorobiphenyl vancomycin [CBPV] | 0.25 µg/mL | 20 ± 1% | 58 ± 6% | 9 ± 2% | – | – | 4% | 13 ± 4% | – | – | – | –
des-N-methyl-leucyl-vancomycin | – | – | – | – | – | – | – | – | totally loses its antibacterial activity | – | – | –
des-N-methylleucyl chlorobiphenyl vancomycin [ΔNCBPV] | 3 µg/mL | 14 ± 1% | – | – | – | – | 52% | – | – | 45 ± 12% | 17 ± 8% | 24 ± 3%
